Laboratory results as given in patent US20160271263A1 (Novo Nordisk A/S, priority 2010, published 2016).
Where two headings read alike, the source gives them in different places. Numbered stars: 1 amine (or outer) side, 2 acyl side, 3 side chain; on linkers, the order of the positions; unused ones are H or OH. Side chains are listed from the residue outwards. Peptide text beside a SMILES is read from it. * marks the point of attachment. C18 diacid = O=C(O)CCCCCCCCCCCCCCCCC(=O)*; γGlu = O=C(O)[C@H](CCC(=O)[*:2])N[*:1]; AEEA = NCCOCCOCC(=O)O

What was measured:
DPP-IV = DPP-IV (Homo sapiens, UniProt P27487); test: in vitro
Protocol: 10 μM of peptide was incubated with DPP-IV (2 μg/ml) in duplicate at 37° C. in a HEPES buffer to which 0.005% Tween20 were added. […] The samples were analysed by LC-MS for parent peptide. Data were plotted according to 1st kinetics and the stability was reported as half-lives.

glucagon receptor [1] = biological target: T1, glucagon receptor (Homo sapiens, UniProt P47871); test: cell-based
in vivo = conditions: male, Sprague Dawley, rat, plasma
Protocol: Fifteen male rats (Sprague Dawley, 400 g, Taconic Europe) were divided into three groups of five rats. The rats were dosed at t=0 with either 15 nmol/kg IV, 30 nmol/kg SC, or 100 nmol/kg, respectively. The IV dosing was performed via the tail vein while the rats were shortly under isoflurane anaesthesia. […] Plasma samples were stored on freeze until analysed by LCMS.

glucagon receptor [2] = biological target: T1, glucagon receptor; conditions: read-out: Assay (I) Glucagon [EC50]; Table 1; HEK-293 cells, end point data after 6 minutes
[3] = ThT fibrillation assay for physical stability (lag time and recovery); assay type: physicochemical; conditions: Table 2
Description: This has traditionally been measured by visual inspection of the sample. However, that kind of measurement is very subjective and depending on the observer. Therefore, the application of a small molecule indicator probe is much more advantageous. […] Enzymol.
Here, F is the ThT fluorescence at the time t. […] The two important parameters describing fibril formation are the lag-time calculated by t0−2τ and the apparent rate constant kapp 1/τ.
Few of those intermediates nucleate to form a template onto which further intermediates may assembly and the fibrillation proceeds. The lag-time corresponds to the interval in which the critical mass of nucleus is built up and the apparent rate constant is the rate with which the fibril itself is formed.
Samples were prepared freshly before each assay. […] The pH of the sample was adjusted to the desired value using appropriate amounts of concentrated NaOH and HCl. Thioflavin T was added to the samples from a stock solution in H2O to a final concentration of 1 μM.
The plate was sealed with Scotch Pad (Qiagen).
Each run was initiated by incubating the plate at the assay temperature for 10 min. The plate was measured every 20 minutes for a desired period of time. Between each measurement, the plate was shaken and heated as described.
The supernatant was filtered through a 0.22 μm filter and an aliquot was transferred to a HPLC vial. […]

T1 sequence (P47871 26-477): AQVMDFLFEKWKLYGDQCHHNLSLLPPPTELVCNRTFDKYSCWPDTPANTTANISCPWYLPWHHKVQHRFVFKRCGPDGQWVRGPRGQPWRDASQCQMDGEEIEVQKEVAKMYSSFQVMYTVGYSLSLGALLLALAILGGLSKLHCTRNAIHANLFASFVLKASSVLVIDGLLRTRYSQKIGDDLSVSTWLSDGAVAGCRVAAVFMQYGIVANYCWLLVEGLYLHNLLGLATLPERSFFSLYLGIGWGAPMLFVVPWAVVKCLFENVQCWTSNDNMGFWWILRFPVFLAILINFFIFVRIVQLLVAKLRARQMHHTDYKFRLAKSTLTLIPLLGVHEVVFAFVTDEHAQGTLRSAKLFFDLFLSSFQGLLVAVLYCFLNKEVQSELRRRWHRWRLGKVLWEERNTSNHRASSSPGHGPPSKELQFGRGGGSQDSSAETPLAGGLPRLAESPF
Chain of DPP-IV (P27487 whole entry, species assumed): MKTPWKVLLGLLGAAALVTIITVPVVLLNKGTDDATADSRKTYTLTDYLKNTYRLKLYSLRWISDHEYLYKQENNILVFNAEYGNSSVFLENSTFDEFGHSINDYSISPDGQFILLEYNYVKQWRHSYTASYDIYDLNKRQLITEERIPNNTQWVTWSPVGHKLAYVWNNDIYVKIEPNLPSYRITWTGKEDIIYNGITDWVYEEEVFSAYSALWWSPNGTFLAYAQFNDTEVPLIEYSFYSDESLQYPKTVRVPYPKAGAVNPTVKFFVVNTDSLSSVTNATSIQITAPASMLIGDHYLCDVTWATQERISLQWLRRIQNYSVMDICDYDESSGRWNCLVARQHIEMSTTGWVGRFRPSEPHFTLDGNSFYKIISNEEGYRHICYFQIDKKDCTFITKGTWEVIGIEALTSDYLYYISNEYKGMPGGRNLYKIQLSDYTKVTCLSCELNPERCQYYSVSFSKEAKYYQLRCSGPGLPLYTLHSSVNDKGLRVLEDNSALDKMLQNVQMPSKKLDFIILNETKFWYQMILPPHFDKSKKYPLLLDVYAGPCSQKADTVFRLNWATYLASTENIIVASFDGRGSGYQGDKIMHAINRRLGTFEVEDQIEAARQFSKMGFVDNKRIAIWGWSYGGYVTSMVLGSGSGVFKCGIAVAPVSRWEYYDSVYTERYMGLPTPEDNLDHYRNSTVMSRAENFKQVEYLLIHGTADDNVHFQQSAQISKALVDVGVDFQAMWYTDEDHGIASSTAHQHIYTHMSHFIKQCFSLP

SMILES | EC50 (glucagon receptor [1]) | EC50 (glucagon receptor [2]) | further results
CC(C)C[C@H](NC(=O)[C@H](Cc1ccc(O)cc1)NC(=O)[C@H](CCCCN)NC(=O)[C@H](CO)NC(=O)[C@H](Cc1ccc(O)cc1)NC(=O)[C@H](CC(=O)O)NC(=O)[C@H](CO)NC(=O)[C@@H](NC(=O)[C@H](Cc1ccccc1)NC(=O)[C@@H](NC(=O)CNC(=O)[C@H](CCC(N)=O)NC(=O)[C@H](CO)NC(=O)[C@@H](N)Cc1c[nH]cn1)[C@@H](C)O)[C@@H](C)O)C(=O)N[C@@H](CC(=O)O)C(=O)N[C@@H](CO)C(=O)N[C@@H](CCCCN)C(=O)N[C@@H](CCCCN)C(=O)N[C@@H](C)C(=O)N[C@@H](CCC(N)=O)C(=O)N[C@@H](CCC(=O)O)C(=O)N[C@@H](Cc1ccccc1)C(=O)N[C@H](C(=O)N[C@@H](CCCCNC(=O)COCCOCCNC(=O)COCCOCCNC(=O)CC[C@H](NC(=O)CCCCCCCCCCCCCCCCC(=O)O)C(=O)O)C(=O)N[C@@H](Cc1c[nH]c2ccccc12)C(=O)N[C@@H](CC(C)C)C(=O)N[C@@H](CC(C)C)C(=O)N[C@@H](CC(N)=O)C(=O)N[C@H](C(=O)O)[C@@H](C)O)C(C)C [Example 3] (H-HSQGTFTSDYSKYLDSKKAQEFVK([AEEA-AEEA-γGlu-C18 diacid])WLLNT-OH) | 0.019 nM |  | half-life at 10 μM (DPP-IV): 4.33 h; half-life (in vivo; iv, 15 nmol/kg): ~8.6 h; half-life (in vivo; sc, 30 nmol/kg): ~9.4 h
CC(C)C[C@H](NC(=O)[C@H](Cc1ccc(O)cc1)NC(=O)[C@H](CCCNC(=N)N)NC(=O)[C@H](CO)NC(=O)[C@H](Cc1ccc(O)cc1)NC(=O)[C@H](CC(=O)O)NC(=O)[C@H](CO)NC(=O)[C@@H](NC(=O)[C@H](Cc1ccccc1)NC(=O)[C@@H](NC(=O)CNC(=O)[C@H](CCC(N)=O)NC(=O)[C@H](CO)NC(=O)[C@@H](N)Cc1c[nH]cn1)[C@@H](C)O)[C@@H](C)O)C(=O)N[C@@H](CC(=O)O)C(=O)N[C@@H](CO)C(=O)N[C@@H](CCCNC(=N)N)C(=O)N[C@@H](CCCNC(=N)N)C(=O)N[C@@H](C)C(=O)N[C@@H](CCC(N)=O)C(=O)N[C@@H](CC(=O)O)C(=O)N[C@@H](Cc1ccccc1)C(=O)N[C@H](C(=O)N[C@@H](CCCCNC(=O)COCCOCCNC(=O)COCCOCCNC(=O)CC[C@H](NC(=O)CCCCCCCCCCCCCCCCC(=O)O)C(=O)O)C(=O)N[C@@H](Cc1c[nH]c2ccccc12)C(=O)N[C@@H](CC(C)C)C(=O)N[C@@H](CC(C)C)C(=O)N[C@@H](CC(N)=O)C(=O)N[C@H](C(=O)O)[C@@H](C)O)C(C)C [Example 20] (H-HSQGTFTSDYSRYLDSRRAQDFVK([AEEA-AEEA-γGlu-C18 diacid])WLLNT-OH; N-terminus and C-terminus assumed) |  | 0.109 nM | 
CC(C)C[C@H](NC(=O)[C@H](Cc1ccc(O)cc1)NC(=O)[C@H](CCCCN)NC(=O)[C@H](CO)NC(=O)[C@H](Cc1ccc(O)cc1)NC(=O)[C@H](CC(=O)O)NC(=O)[C@H](CO)NC(=O)[C@@H](NC(=O)[C@H](Cc1ccccc1)NC(=O)[C@@H](NC(=O)CNC(=O)[C@H](CCC(N)=O)NC(=O)[C@H](CO)NC(=O)[C@@H](N)Cc1c[nH]cn1)[C@@H](C)O)[C@@H](C)O)C(=O)N[C@@H](CC(=O)O)C(=O)N[C@@H](CO)C(=O)N[C@@H](CCCNC(=N)N)C(=O)N[C@@H](CCCNC(=N)N)C(=O)N[C@@H](C)C(=O)N[C@@H](CCC(N)=O)C(=O)N[C@@H](CCC(=O)O)C(=O)N[C@@H](Cc1ccccc1)C(=O)N[C@H](C(=O)N[C@@H](CCCCNC(=O)COCCOCCNC(=O)COCCOCCNC(=O)CC[C@H](NC(=O)CCCCCCCCCCCCCCCCC(=O)O)C(=O)O)C(=O)N[C@@H](Cc1c[nH]c2ccccc12)C(=O)N[C@@H](CC(C)C)C(=O)N[C@@H](CC(C)C)C(=O)N[C@@H](CC(N)=O)C(=O)N[C@H](C(=O)O)[C@@H](C)O)C(C)C [Example 21] |  | 0.021 nM | 
CC(C)C[C@H](NC(=O)[C@H](Cc1ccc(O)cc1)NC(=O)[C@H](CCCCN)NC(=O)[C@H](CO)NC(=O)[C@H](Cc1ccc(O)cc1)NC(=O)[C@H](CC(=O)O)NC(=O)[C@H](CO)NC(=O)[C@@H](NC(=O)[C@H](Cc1ccccc1)NC(=O)[C@@H](NC(=O)CNC(=O)[C@H](CCC(N)=O)NC(=O)[C@H](CO)NC(=O)[C@@H](N)Cc1c[nH]cn1)[C@@H](C)O)[C@@H](C)O)C(=O)N[C@@H](CC(=O)O)C(=O)N[C@@H](CO)C(=O)N[C@@H](CCCNC(=N)N)C(=O)N[C@@H](CCCNC(=N)N)C(=O)N[C@@H](C)C(=O)N[C@@H](CCC(N)=O)C(=O)N[C@@H](CC(=O)O)C(=O)N[C@@H](Cc1ccccc1)C(=O)N[C@H](C(=O)N[C@@H](CCCCNC(=O)CC[C@H](NC(=O)CC[C@H](NC(=O)CC[C@H](NC(=O)CCCCCCCCCCCCCCCCC(=O)O)C(=O)O)C(=O)O)C(=O)O)C(=O)N[C@@H](Cc1c[nH]c2ccccc12)C(=O)N[C@@H](CC(C)C)C(=O)N[C@@H](CC(C)C)C(=O)N[C@@H](CO)C(=O)N[C@H](C(=O)O)[C@@H](C)O)C(C)C [Example 71, N^ε24-[(4S)-4-carboxy-4-[[(4S)-4-carboxy-4-[[(4S)-4-carboxy-4-(17-carboxyheptadecanoylamino)butanoyl]amino]butanoyl]amino]butanoyl]-[Lys^24,Leu^27,Ser^28]-Glucagon] | 0.094 nM |  | Th T assay [Lag time] [3]: 45 h
CC(C)C[C@H](NC(=O)[C@H](Cc1ccc(O)cc1)NC(=O)[C@H](CCCCN)NC(=O)[C@H](CO)NC(=O)[C@H](Cc1ccc(O)cc1)NC(=O)[C@H](CC(=O)O)NC(=O)[C@H](CO)NC(=O)[C@@H](NC(=O)[C@H](Cc1ccccc1)NC(=O)[C@@H](NC(=O)CNC(=O)[C@H](CCC(N)=O)NC(=O)[C@H](CO)NC(=O)[C@@H](N)Cc1c[nH]cn1)[C@@H](C)O)[C@@H](C)O)C(=O)N[C@@H](CC(=O)O)C(=O)N[C@@H](CO)C(=O)N[C@@H](CCCNC(=N)N)C(=O)N[C@@H](CCCNC(=N)N)C(=O)N[C@@H](C)C(=O)N[C@@H](CCC(=O)O)C(=O)N[C@@H](CC(=O)O)C(=O)N[C@@H](Cc1ccccc1)C(=O)N[C@H](C(=O)N[C@@H](CCCCNC(=O)CC[C@H](NC(=O)CC[C@H](NC(=O)COCCOCCNC(=O)COCCOCCNC(=O)CC[C@H](NC(=O)CCCCCCCCCCCCCCCCC(=O)O)C(=O)O)C(=O)O)C(=O)O)C(=O)N[C@@H](Cc1c[nH]c2ccccc12)C(=O)N[C@@H](CC(C)C)C(=O)N[C@@H](CC(C)C)C(=O)N[C@@H](CO)C(=O)N[C@H](C(=O)O)[C@@H](C)O)C(C)C [Example 101, N^ε24-[(4S)-4-carboxy-4-[[(4S)-4-carboxy-4-[[2-[2-[2-[[2-[2-[2-[[(4S)-4-carboxy-4-(17-carboxyheptadecanoylamino)butanoyl]amino]ethoxy]ethoxy]acetyl]amino]ethoxy]ethoxy]acetyl]amino]butanoyl]amino]butanoyl]-[Glu^20,Lys^24,Leu^27,Ser^28]-Glucagon] | 0.307 nM |  | 
